Experimental data published in ChEMBL document CHEMBL1151367, “Catharanthus alkaloids. XXXVI. Isolation of vincaleukoblastine (VLB) and periformyline from Catharanthus trichophyllus and pericyclivine from Catharanthus roseus” (1981).
In brackets after ≈: the same amount, converted by molar mass.

Tests used:
[1] = Cytotoxicity against human 9KB cells; format: functional; details: read-out: ED50 (the source's name)
P388 = assay: Cytotoxicity against mouse P388 cells; format: functional; details: read-out: ED50 (the source's name)

SMILES | EC50 [1] | EC50 (P388)
CC[C@]12CN3CCc4c([nH]c5ccccc45)[C@@](C(=O)OC)(c4cc5c(cc4OC)N(C)[C@H]4[C@@](O)(C(=O)OC)[C@H](OC(C)=O)[C@]6(CC)C=CCN7CC[C@]54[C@@H]76)C[C@H](C3)[C@H]1O2 [LEUROSINE] | 2.4 µg/mL (≈ 2.97 µM) | 1.7 µg/mL (≈ 2.1 µM)
C/C=C1/CN2CC[C@]34C(=C(C(=O)OC)[C@H]1C[C@H]23)Nc1ccccc14 [AKUAMMICINE] | 2.4 µg/mL (≈ 7.44 µM) | 1.7 µg/mL (≈ 5.27 µM)
CC[C@]1(O)C[C@@H]2CN(CCc3c([nH]c4ccccc34)[C@@](C(=O)OC)(c3cc4c(cc3OC)N(C)[C@H]3[C@@](O)(C(=O)OC)[C@H](OC(C)=O)[C@]5(CC)C=CCN6CC[C@]43[C@@H]65)C2)C1 [VINBLASTINE] | 2.4 µg/mL (≈ 2.96 µM) | 1.7 µg/mL (≈ 2.1 µM)
